This note sets out measurements from US20260199323A1, “LIGAND COMPOUNDS FOR E3 UBIQUITIN LIGASE, PROTEIN DEGRADERS DEVELOPED ON BASIS OF LIGAND COMPOUNDS, AND USES THEREOF” (GLUETACS THERAPEUTICS (SHANGHAI) CO., LTD., priority 2021, published 2026).

One test relates to Kasumi-1. In words: CCK-8 tumor cell proliferation, Kasumi-1. The test is classed as cell-based, Human. The following applies: 72 h. An outline of the steps: (§1)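 Using the CCK-8 kit, viability of plated cells is assessed after exposure to compound across ten concentrations (5-fold serial dilution, top 10 μM) added at 24 h. IC50 is obtained by curve fitting of growth inhibition.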

The test system of a further test is Mino. Description: CCK-8 tumor cell proliferation, Mino. The conditions noted are these: Table 13, designed based on BCR-ABL inhibitors; 72 h. The test is classed as cell-based, Human. The method, boiled down: as §1
The next test has as its system K562. In words: CCK-8 tumor cell proliferation, K562. The arrangement: species or system Human. The following applies: Table 13, designed based on BCR-ABL inhibitors; 72 h. As to the method: (§2) The tumor cells used herein were cultured in a cell culture medium listed in table 4 at 37° C. in an incubator with 5% CO2. Prior to experimentation, all cells used were correctly identified by STR profiling, and tested negative for mycoplasma through routine screenings.
(§3) IC50 values of the compounds of the present disclosure (including the compounds in Tables 1 and 3, and compounds of examples) were measured using the Meilun Cell Counting Kit-8 kit from Dalian Meilun Biotech Co., Ltd. Assay details are as follows: tumor cells were seeded in a 96-well plate at a density listed in Table 5. After 24 h, 100 μL of the inoculated cells were treated with 0.5 μL of the compounds of the present disclosure (including the compounds in Tables 1 and 3, and compounds of examples) at 10 different successively decreasing concentrations (starting at the highest concentration of 10 μM; 5-fold serial dilutions). After the cells were treated with the compounds of the present disclosure for a period of time, the cell viability detection reagent was added to the culture medium for cell viability assessment according to the instructions provided with the CCK-8 kit. […] The growth inhibition of the compounds of the present disclosure on cells was plotted by Prism Graphpad software, and the IC50 values of the compounds of the present disclosure were calculated therefrom.

The next test deals with Ramos. In words: CCK-8 tumor cell proliferation, Ramos. The following applies: Homo sapiens, Table 9, designed based on SHP2 inhibitors, 72 h, read-out: IC50 for inhibiting the proliferation of tumor cells, Ramos. As to the method:
as §2, §3

A further test relates to SNU-182. In words: CCK-8 tumor cell proliferation, SNU-182. The arrangement: species or system Human. The following applies: Table 6, designed based on STAT3 inhibitors; 96 h. The method, then:
as §2, §3

A further test deals with CCRF-CEM. In words: CCK-8 tumor cell proliferation, CCRF-CEM. The following applies: 96 h. The test is classed as cell-based, Human. Also noted: IC50 for inhibiting the proliferation of tumor cells, CCRF-CEM: scale not given here. An outline of the steps: as §1
The subject of the next test is T47D. In words: CCK-8 tumor cell proliferation, T47D. The test is classed as cell-based, Human. The conditions noted are these: Table 6, designed based on STAT3 inhibitors; 96 h. As to the method: as §2, §3
Another test concerns MM.1S. In words: CCK-8 tumor cell proliferation, MM.1S. The test is classed as cell-based. The following applies: Table 6, designed based on STAT3 inhibitors; 72 h. The method, boiled down: as §1
In the next test the test system is Daudi. Description: CCK-8 tumor cell proliferation, Daudi. The following applies: Table 13, designed based on BCR-ABL inhibitors; 96 h. The arrangement: species or system Human. The method, then: as §2, §3
The next test has as its system CAL-62. In words: CCK-8 tumor cell proliferation, CAL-62. The test is classed as cell-based, Human. The arrangement: IC50 for inhibiting the proliferation of tumor cells, CAL-62: scale not given here. The following applies: Table 13, designed based on BCR-ABL inhibitors; 72 h. The method, boiled down:
as §1

In another test the test system is HGC-27. Description: CCK-8 tumor cell proliferation, HGC-27. The test is classed as cell-based, Human. The conditions noted are these: Table 14, designed based on CDK4/6 inhibitors; 96 h. As to the method:
as §2, §3

In the next test the test system is SU-DHL-6. Description: CCK-8 tumor cell proliferation, SU-DHL-6. The test is classed as cell-based, Human. The conditions noted are these: Table 14, designed based on CDK4/6 inhibitors; 72 h. The method, then: as §2, §3
Another test has as its system SR. Description: CCK-8 tumor cell proliferation, SR. The test is classed as cell-based, Human. The following applies: Table 14, designed based on CDK4/6 inhibitors; 72 h. The method, boiled down: as §1
The next test deals with SK-OV-3. In words: CCK-8 tumor cell proliferation, SK-OV-3. The following applies: Table 14, designed based on CDK4/6 inhibitors. As to the method:
as §3

In another test the test system is TMD8. Description: CCK-8 tumor cell proliferation, TMD8. The arrangement: species or system Human. The following applies: Table 13, designed based on BCR-ABL inhibitors; 72 h. The method, then:
as §2, §3

Setting [1] is: Table 13, designed based on BCR-ABL inhibitors.
[2] abbreviates: Table 6, designed based on STAT3 inhibitors.

Turning to `Cc1nc(Nc2ncc(C(=O)Nc3c(C)cccc3Cl)s2)cc(N2CCN(Cc3ccc4c(c3)CN(C3CCC(=O)NC3=O)C4=O)CC2)n1` (stereo not shown) [GT-03215, N-(2-chloro-6-methylphenyl)-2-((6-(4-((2-(2,6-dioxopiperidin-3-yl)-1-oxoisoindolin-5-yl)methyl)piperazin-1-yl)-2-methylpyrimidin-4-yl)amino)thiazole-5-carboxamide], the “IC50 for inhibiting the proliferation of tumor cells, Kasumi-1” value in the test on Kasumi-1 (setting [1]) is “A+”. For the same molecule, the “IC50 for inhibiting the proliferation of tumor cells, Mino” value with Mino is reported as “A+”. For the same molecule, in the test on K562, the “IC50 for inhibiting the proliferation of tumor cells, K562” value is reported as “A+”.

Take `CC1(N)CCN(c2cnc(-c3cccc(Cl)c3Cl)c(N)n2)CC1` [GT-03334]: in the test on Ramos, the IC50 was > 10 µM.

With `C[C@@H]1OCC2(CCN(c3cnc(Sc4ccnc(N)c4Cl)c(N)n3)CC2)[C@@H]1N` [GT-03335], in the test with Ramos, the IC50 was > 10 µM.

Regarding `CC1(N)CCN(c2cnc3c(-c4cccc(Cl)c4Cl)n[nH]c3n2)CC1` [GT-03336], in the test with Ramos, the IC50 was > 10 µM.

On to `O=C1CCC(N2Cc3cc(CNC(=O)c4cc5c(o4)C(=O)c4ccccc4C5=O)ccc3C2=O)C(=O)N1` (stereo not shown) [GT-03383, N-((2-(2,6-dioxopiperidin-3-yl)-1-oxoisoindolin-5-yl)methyl)-4,9-dioxo-4,9-dihydronaphtho[2,3-b]furan-2-carboxamide], for which, in the test on Kasumi-1 (setting [2]), the “IC50 for inhibiting the proliferation of tumor cells, Kasumi-1” value is “A+”. Further, the “IC50 for inhibiting the proliferation of tumor cells, SNU-182” value with SNU-182 is recorded as “A+”. Further, the “IC50 for inhibiting the proliferation of tumor cells, CCRF-CEM” value in the test on CCRF-CEM (setting [2]) was “A+”. Moreover, the “IC50 for inhibiting the proliferation of tumor cells, T47D” value with T47D is given as “A+”. In addition, in the test on MM.1S, the “IC50 for inhibiting the proliferation of tumor cells, MM.1S” value was “A+”.

`Cc1ccc(C(=O)Nc2ccc(CN3CCN(Cc4ccc5c(c4)CN(C4CCC(=O)NC4=O)C5=O)CC3)c(C(F)(F)F)c2)cc1C#Cc1cnc2cccnn12` (stereo not shown) [GT-03804, N-(4-((4-((2-(2,6-dioxopiperidin-3-yl)-1-oxoisoindolin-5-yl)methyl)piperazin-1-yl)methyl)-3-(trifluoromethyl)phenyl)-3-(imidazo[1,2-b]pyridazin-3-ylethynyl)-4-methylbenzamide]: the “IC50 for inhibiting the proliferation of tumor cells, Kasumi-1” value with Kasumi-1 (setting [1]) is reported as “A+”. The “IC50 for inhibiting the proliferation of tumor cells, CCRF-CEM” value in the test with CCRF-CEM (setting [1]) was “A+”. Besides, in the test with Mino, the “IC50 for inhibiting the proliferation of tumor cells, Mino” value is “A+”. In addition, the “IC50 for inhibiting the proliferation of tumor cells, K562” value in the test with K562 is given as “A+”. The “IC50 for inhibiting the proliferation of tumor cells, Daudi” value with Daudi was “A+”. Moreover, the “IC50 for inhibiting the proliferation of tumor cells, CAL-62” value in the test on CAL-62 is reported as “A+”.

On to `Cc1ccc(C(=O)Nc2ccc(N3CCN(Cc4ccc5c(c4)CN(C4CCC(=O)NC4=O)C5=O)CC3)c(C(F)(F)F)c2)cc1C#Cc1cnc2cccnn12` (stereo not shown) [GT-03805, N-(4-(4-((2-(2,6-dioxopiperidin-3-yl)-1-oxoisoindolin-5-yl)methyl)piperazin-1-yl)-3-(trifluoromethyl)phenyl)-3-(imidazo[1,2-b]pyridazin-3-ylethynyl)-4-methylbenzamide], for which the “IC50 for inhibiting the proliferation of tumor cells, CCRF-CEM” value in the test on CCRF-CEM (setting [1]) is reported as “A+”. Moreover, in the test with K562, the “IC50 for inhibiting the proliferation of tumor cells, K562” value is listed as “A+”.

Turning to `Cc1nc2c(F)cc(-c3nc(Nc4ccc(N5CCC(N6CCN(Cc7ccc8c(c7F)CN(C7CCC(=O)NC7=O)C8=O)CC6)CC5)cn4)ncc3F)cc2n1C(C)C` (stereo not shown) [GT-03900, 3-(4-fluoro-5-((4-(1-(6-((5-fluoro-4-(4-fluoro-1-isopropyl-2-methyl-1H-benzo[d]imidazol-6-yl)pyrimidin-2-yl)amino)pyridin-3-yl)piperidin-4-yl)piperazin-1-yl)methyl)-1-oxoisoindolin-2-yl)piperidine-2,6-dione], the “IC50 for inhibiting the proliferation of tumor cells, HGC-27” value in the test on HGC-27 is given as “A+”. The “IC50 for inhibiting the proliferation of tumor cells, SU-DHL-6” value with SU-DHL-6 was “A+”. Further, the “IC50 for inhibiting the proliferation of tumor cells, SR” value in the test on SR is given as “A+”. The “IC50 for inhibiting the proliferation of tumor cells, SK-OV-3” value with SK-OV-3 is listed as “A+”.

In the case of `Cc1nc2c(F)cc(-c3nc(Nc4ccc(N5CCC(N6CCN(Cc7cc8c(cc7F)C(=O)N(C7CCC(=O)NC7=O)C8)CC6)CC5)cn4)ncc3F)cc2n1C(C)C` (stereo not shown) [GT-03901, 3-(6-fluoro-5-((4-(1-(6-((5-fluoro-4-(4-fluoro-1-isopropyl-2-methyl-1H-benzo[d]imidazol-6-yl)pyrimidin-2-yl)amino)pyridin-3-yl)piperidin-4-yl)piperazin-1-yl)methyl)-1-oxoisoindolin-2-yl)piperidine-2,6-dione], in the test with HGC-27, the “IC50 for inhibiting the proliferation of tumor cells, HGC-27” value is listed as “A+”. The “IC50 for inhibiting the proliferation of tumor cells, SU-DHL-6” value with SU-DHL-6 is recorded as “A+”. The “IC50 for inhibiting the proliferation of tumor cells, SR” value in the test with SR is on record as “A+”. Moreover, the “IC50 for inhibiting the proliferation of tumor cells, SK-OV-3” value with SK-OV-3 is reported as “A+”.

As for `Cc1nc2c(F)cc(-c3nc(Nc4ccc(N5CCC(N6CCN(Cc7cc(F)c8c(c7)CN(C7CCC(=O)NC7=O)C8=O)CC6)CC5)cn4)ncc3F)cc2n1C(C)C` (stereo not shown) [GT-03902, 3-(7-fluoro-5-((4-(1-(6-((5-fluoro-4-(4-fluoro-1-isopropyl-2-methyl-1H-benzo[d]imidazol-6-yl)pyrimidin-2-yl)amino)pyridin-3-yl)piperidin-4-yl)piperazin-1-yl)methyl)-1-oxoisoindolin-2-yl)piperidine-2,6-dione], in the test with HGC-27, the “IC50 for inhibiting the proliferation of tumor cells, HGC-27” value is “A+”. Also, the “IC50 for inhibiting the proliferation of tumor cells, SU-DHL-6” value in the test with SU-DHL-6 is “A+”. For the same molecule, in the test with SR, the “IC50 for inhibiting the proliferation of tumor cells, SR” value was “A+”. In addition, in the test with SK-OV-3, the “IC50 for inhibiting the proliferation of tumor cells, SK-OV-3” value is “A+”.

In the case of `Cc1nc2c(F)cc(-c3nc(Nc4ccc(N5CCC(N6CCN(Cc7cccc8c7CN(C7CCC(=O)NC7=O)C8=O)CC6)CC5)cn4)ncc3F)cc2n1C(C)C` (stereo not shown) [GT-03903, 3-(4-((4-(1-(6-((5-fluoro-4-(4-fluoro-1-isopropyl-2-methyl-1H-benzo[d]imidazol-6-yl)pyrimidin-2-yl)amino)pyridin-3-yl)piperidin-4-yl)piperazin-1-yl)methyl)-1-oxoisoindolin-2-yl)piperidine-2,6-dione], in the test with CCRF-CEM (Table 14, designed based on CDK4/6 inhibitors), the “IC50 for inhibiting the proliferation of tumor cells, CCRF-CEM” value is reported as “A+”. Moreover, in the test with HGC-27, the “IC50 for inhibiting the proliferation of tumor cells, HGC-27” value was “A+”. For the same molecule, the “IC50 for inhibiting the proliferation of tumor cells, SU-DHL-6” value with SU-DHL-6 is “A+”. In addition, in the test with SR, the “IC50 for inhibiting the proliferation of tumor cells, SR” value is reported as “A+”. The “IC50 for inhibiting the proliferation of tumor cells, SK-OV-3” value in the test on SK-OV-3 is reported as “A+”.

As for `Cc1ccc(NC(=O)c2ccc(CN(C)Cc3ccc4c(c3)CN(C3CCC(=O)NC3=O)C4=O)cc2)cc1Nc1nccc(-c2cccnc2)n1` (stereo not shown) [GT-03990, 4-((((2-(2,6-dioxopiperidin-3-yl)-1-oxoisoindolin-5-yl)methyl)(methyl)amino)methyl)-N-(4-methyl-3-((4-(pyridin-3-yl)pyrimidin-2-yl)amino)phenyl)benzamide], in the test on TMD8, the “IC50 for inhibiting the proliferation of tumor cells, TMD8” value is “A+”.
